In publication PMC8412337, “Alpha-single chains of collagen type VI inhibit the fibrogenic effects of triple helical collagen VI in hepatic stellate cells” (PLoS ONE, 2021):

Experiments:
Assay type in all cases: cell-based
[1] = test system: primary rat HSC; assay: Morphology and αSMA protein expression (activation of HSCs)
Description: Activated HSC (third passage) were serum starved for 24 h in standard medium without FBS (starving medium), followed by dissociation with 500 μl 0.05% trypsin-EDTA (Biochrom, Berlin, Germany) and neutralization with 30 ml starving medium containing 1 g/l soybean trypsin inhibitor and 1 g/l ovalbumin. Alternatively, cells were scraped carefully with a cell-scraper (Costar, Cambridge, MA, USA) to exclude any potential effect of trypsin. […] For quantification of spreading, cells that had attached were counted 12 hours after plating and spreading efficiency was determined as percentage of plated cells in each group. De-novo DNA synthesis and apoptosis were assessed by morphological criteria, Cell death detection ELISA and FACS analysis as described below. […] After blocking the cells 1h with DMEM+1% FBS, the cells were incubated with primary antibodies against a-actin (Sigma-Aldrich, Taufkirchen, Germany, #A2547; dilution 1:200) and GFAP (Sigma-Aldrich, #G9269; dilution 1:20) followed by a washing step with PBS and the incubation with fluorescence-labeled secondary antibodies (Alexa Fluor 546 & Alexa Fluor 488, Molecular Probes, Eugene, USA, #A11030 & #A11034; dilution 1:100). […]
Dislodged cells were centrifuged at 800 x g/10 min and lysed with 100 μl lysis buffer. […] The emitted fluorescence was assessed at 570 nm in a SpectraMax Gemini EM (Molecular Devices, Biberach an der Riß, Germany). […]

[2] = test system: CFSC (rat HSC cell line); assay: [3H]-thymidine incorporation, de-novo DNA synthesis; set-up: proliferative effect of reconstituted CVI after denaturation and refolding: dose or concentration left out as unconfirmed
Description: Immediately before use, guanidine hydrochloride (6 mol/l) was cleared over night by activated charcoal (Merck, Darmstadt, Germany) and adjusted to pH 8.0 by adding 50 mmol/l tris(hydroxymethyl)aminomethane (Tris). Freeze dried CVI (10 mg/ml) was mixed with 1 ml Tris-buffered guanidine-hydrochloride, incubated at room temperature for 1 h with frequent thorough vortex followed by 1 h at 37°C. The buffer from the clear supernatant after centrifugation (10.000 x g, 10 min, 4°C) was replaced for 150 mmol/l HAc by gelfiltration (Sephadex-G25; GE Healthcare, Munich, Germany). This procedure regains the biological activity of CVI on CFSC (S1 Fig).
5x10^3CFSC in 100 μl 10% FBS were seeded into a 96-well flat-bottom tissue culture plate (Nunc, Roskilde, Denmark). After 24 hours, medium was completely removed, and cells were rinsed with 200 μl phosphate-buffered saline and 100 μl standard medium containing only 0.25% FBS were added. Cells were cultured for additional 24 h prior to treatment. Synchronized microcultures in 96-well plates were treated for 2 hours in reduction medium. […] [^3H]-thymidine incorporation was measured as described before. […] After neutralization with 800 mmol/l HCl, lysates were collected to a glassfibre mat and the de-novo DNA synthesis was assessed by liquid scintillation (LKB Wallac, Bromma, Sweden) and the radioactive decay was counted (for) a minute (cpm).

[3] = test system: primary rat HSC; assay: FACS analysis of apoptosis (propidium iodide DNA content)
Description: Activated HSC (third passage) were serum starved for 24 h in standard medium without FBS (starving medium), followed by dissociation with 500 μl 0.05% trypsin-EDTA (Biochrom, Berlin, Germany) and neutralization with 30 ml starving medium containing 1 g/l soybean trypsin inhibitor and 1 g/l ovalbumin. Alternatively, cells were scraped carefully with a cell-scraper (Costar, Cambridge, MA, USA) to exclude any potential effect of trypsin. After centrifugation at 800 x g for 10 min, cells were washed twice with 20 ml PBS (w/o Ca^2+, Mg^2+; Biochrom, Berlin, Germany), resuspended in starving medium and plated at a density of 1.5-2x10^6 in 1.7 ml starving medium in 6-well plates (NUNC, Wiesbaden, Germany). Cells were then treated with starving medium, soluble CI or CVI (both at a final concentration of 30 mg/l), or 10% FBS. For quantification of spreading, cells that had attached were counted 12 hours after plating and spreading efficiency was determined as percentage of plated cells in each group. De-novo DNA synthesis and apoptosis were assessed by morphological criteria, Cell death detection ELISA and FACS analysis as described below. […] After blocking the cells 1h with DMEM+1% FBS, the cells were incubated with primary antibodies against a-actin (Sigma-Aldrich, Taufkirchen, Germany, #A2547; dilution 1:200) and GFAP (Sigma-Aldrich, #G9269; dilution 1:20) followed by a washing step with PBS and the incubation with fluorescence-labeled secondary antibodies (Alexa Fluor 546 & Alexa Fluor 488, Molecular Probes, Eugene, USA, #A11030 & #A11034; dilution 1:100). […] Cells were analyzed by fluorescence microscopy (Zeiss, Jena, Germany; Kodak Ektachrome P1600 and a quantitative staining analysis was performed using Image J software (version 1.50i; National Institutes of Health, Bethesda, […], USA).
10^5 of freshly set cells were treated with starving medium, CI, CVI or 10% FBS for 24 or 48 hours as described before. […] Fixed cells were stained with propidium iodide (50 mg/l) in a final volume of 1 ml before being subjected to fluorescence activated cell sorting (FACS) analysis.

“CVI: Human collagen VI isolated from placentas by pepsin digestion; triple helical, soluble” was tested, and the “protein expression of αSMA” value ([1]; freshly isolated rat HSCs, immunostaining, detected as early as three days, immunoblotting) was “strongly induced”, the “formation of cytoplasmic extensions” value ([1]; primary rat HSC, serum-reduced medium containing 1% FBS, five days) was “induced the formation of distinct cytoplasmic extensions” and the “de-novo DNA synthesis ([3H]-thymidine incorporation)” value ([2]; 24 h, n = three independent experiments) was “induced a comparable increase in de-novo DNA synthesis”. The “proliferative effect of reconstituted CVI after denaturation and refolding” value ([2]; three independent experiments (S1 Fig)) was “regains its biological activity”, the “fold less apoptosis compared to the CI-treated group” value ([3]; FACS, CVI-treated versus CI-treated group, p<0.05) was “approximately 3 fold” and the “percentage of apoptotic cells (FACS)” value ([3]; serum-starved primary rat HSC, text: within 24 hours, Fig 1C legend: 48 h, propidium iodide, three independent experiments) was 25%.
